{
  "source": "patent US20080020387A1",
  "about": "“BIOMARKER-OPTIMIZED ADHD TREATMENT” (priority 2006, published 2008)",
  "key": {"ADHD patients": {"system": "ADHD patients", "conditions": "cited from earlier work"}, "children with ADHD [1]": {"system": "children with ADHD", "assay": "Reported side effects after single drug dose and TMS", "assay_type": "in vivo, human", "protocol": "(§1) The study is a randomized, double-blind, crossover design comparing the effects of single doses of atomoxetine (ATX) and methylphenidate (MPH). Sixteen patients (age 8-17 years, mean age=12, ±3; 2 girls) participate. Nine have TS. Medication doses are clinically relevant: approximately 0.5 mg/kg for MPH and 1.0 mg/kg for ATX, administered as follows:\n(§2) 1) subjects 20-29 kg→10 mg MPH, 20 mg ATX; 2) subjects 30-49 kg→20 mg MPH, 40 mg ATX; 3) subjects 50 kg and above→30 mg MPH, 60 mg ATX. Subjects and investigators are blind to the order of treatment throughout the study. The one-week interval between study visits is based on published pharmacokinetic data for single doses of ATX."}, "children with ADHD [2]": {"system": "children with ADHD", "conditions": "single 10 mg dose, Moll et al. (2000); cited from earlier work"}, "children with ADHD [3]": {"system": "children with ADHD", "assay": "Paired and single TMS of motor cortex measuring short interval cortical inhibition (SICI) before and after single drug doses", "assay_type": "in vivo, human", "conditions": "for Cortical Inhibition (SICI), post-medication: 90 minutes later", "protocol": "Accordingly, sixteen children with ADHD, aged 8-17, are studied. Seven are homozygotes for the 10-repeat allele. Subjects are given single oral doses of 0.5 mg/kg methylphenidate and 1.0 mg/kg atomoxetine at visits separated by one week in a randomized, double-blind crossover design. Paired and single TMS are used to measure SICI before and after drug administration. Medication and genotype effects on SICI are estimated with repeated measures, mixed model regression. […] Some variation in ADHD medication-induced neurophysiological responses is explained by differences in the number of 3′-UTR, 10-repeat VNTR alleles in DAT1.\nas §1, §2\nNeurophysiological studies are performed as described by Gilbert et al. ((2006) Neuropsychopharmacology 31 :442-449). TMS is performed by an investigator blind to genotype and clinical ratings.\nResting and active motor threshold (RMT and AMT) are measured using the method described in Mills and Nithi ((1997) Muscle and Nerve 20:570-576). SICI and intracortical facilitation (ICF) are measured with the Abductor Pollicis Brevis (APB) at rest, according to established paradigms (Kujirai et al. (1993) J. Physiol. 471:501-519; Ziemann et al. (1997) Electroencelphalogr. Clin. Neurophysiol. 105:430-437). SICI is measured with a conditioning pulse, 1% of stimulator output below AMT (˜70% of RMT), delivered 3 msec before a suprathreshold test pulse. ICF is measured with the conditioning pulse 10 msec before the test pulse. Twenty trials at each interval and 20 unconditioned test pulses are delivered in random order. SICI and ICF are expressed as the ratios of the mean motor evoked potential (MEP) amplitudes evoked by the pulse pairs divided by the mean amplitude of the MEP from the single test pulses.\nAfter baseline TMS testing, subjects are administered study medication, and all measurements are repeated 90 minutes later, consistent with expected peak serum drug levels. Each TMS session takes approximately 30 minutes.\nPrimary analysis. The primary outcome of interest for this study is ADHD-medication, genotype, and medication*genotype effects on cortical inhibition (SICI). SICI measures are subjected to a mixed model, repeated measures analysis of variance using PROC MIXED. After assuring that baselines are not different and that there are no effects of order, we then model SICI=medication+DAT genotype+medication*genotype, combining baselines. Age and ADHD severity scores are also entered into the models as potential explanatory covariates. ICF is modeled in the same manner to determine if any effects are specific to cortical inhibition.\nSecondary analyses. The secondary outcome of interest is to compare ATX and MPH effects on cortical inhibition (SICI). Two repeated measure regressions are performed: 1) the baselines-combined model above, and 2) a day-of-visit, baseline-adjusted model. Genotypes are entered to estimate genotype-specific effects of ATX vs. MPH. The Tic phenotype is entered to estimate TIC*medication and TIC*ATX vs. TIC*MPH effects. In addition, using Spearman, correlations of changes in SICI and ICF are assessed for ATX and MPH, and for SICI and ADHD severity."}, "[4]": {"conditions": "DAT1 10-repeat homozygotes, single oral dose"}, "[5]": {"conditions": "DAT 9, 10 genotype, single oral dose, baseline-adjusted estimate"}, "[6]": {"conditions": "DAT 10, 10 genotype, single oral dose, baseline-adjusted estimate"}, "[7]": {"conditions": "No Tics, single oral dose, baseline-adjusted estimate"}, "[8]": {"conditions": "Tics, single oral dose, baseline-adjusted estimate"}, "[9]": {"conditions": "all subjects, single oral dose ~1.0 mg/kg ATX or ~0.5 mg/kg MPH, adjusted for day-of-visit pre-treatment SICI, MEP amplitude ratio"}, "[10]": {"conditions": "heterozygotes (single 10-repeat DAT1 allele), single oral dose"}, "[11]": {"conditions": "individuals with ADHD and no TS, single oral dose"}, "[12]": {"conditions": "patients with ADHD and TS, single oral dose"}},
  "data": [
    {"smiles": "COC(=O)C(c1ccccc1)C1CCCCN1", "note": "(stereo not shown) [MPH, methylphenidate]", "values": [
      {"measurement": "Clinical response by DAT1 genotype", "setting": "ADHD patients; individuals with the DAT1 10/10 genotype, e.g. Cheon et al. (2005)", "result": "poorer clinical response"},
      {"measurement": "Severity rating of side effects", "setting": "children with ADHD [1]; after drug/TMS", "result": "mild, except for one child who reports a moderate headache"},
      {"measurement": "Side effect: abdominal pain (number of reports)", "setting": "children with ADHD [1]; after drug/TMS", "result": 1},
      {"measurement": "Side effect: arm/other pain (number of reports)", "setting": "children with ADHD [1]; after drug/TMS", "result": 2},
      {"measurement": "Side effect: headache (number of reports)", "setting": "children with ADHD [1]; after drug/TMS", "result": 3},
      {"measurement": "Side effect: hearing change (number of reports)", "setting": "children with ADHD [1]; after drug/TMS", "result": 1},
      {"measurement": "Side effect: numbness/tingling (number of reports)", "setting": "children with ADHD [1]; after drug/TMS", "result": 1},
      {"measurement": "Number of subjects reporting side effects", "setting": "children with ADHD [1]; of 16 subjects, after drug/TMS", "result": 6, "unit": "subjects"},
      {"measurement": "Effect on SICI", "setting": "children with ADHD [2]", "result": "significantly increase (normalize) SICI"},
      {"measurement": "Effect of medication on SICI", "setting": "children with ADHD [3]; [4]", "result": "slight decrease in SICI"},
      {"measurement": "Cortical Inhibition (SICI), post-medication", "setting": "children with ADHD [3]; [5]", "result": 0.47},
      {"measurement": "Cortical Inhibition (SICI), post-medication", "setting": "children with ADHD [3]; [6]", "result": 0.61},
      {"measurement": "Cortical Inhibition (SICI), post-medication", "setting": "children with ADHD [3]; [7]", "result": 0.64},
      {"measurement": "Cortical Inhibition (SICI), post-medication", "setting": "children with ADHD [3]; [8]", "result": 0.44},
      {"measurement": "Cortical Inhibition (SICI), post-medication", "setting": "children with ADHD [3]; [9]", "result": 0.54},
      {"measurement": "Effect of medication on SICI", "setting": "children with ADHD [3]; [10]", "result": "tend to increase (normalize) SICI"},
      {"measurement": "Effect of medication on SICI", "setting": "children with ADHD [3]; [11]", "result": "decrease SICI"},
      {"measurement": "Effect of medication on SICI", "setting": "children with ADHD [3]; [12]", "result": "increase (normalize) SICI"}
    ]},
    {"smiles": "CNCC[C@@H](Oc1ccccc1C)c1ccccc1", "note": "[ATX, atomoxetine]", "values": [
      {"measurement": "ADHD patients who do not respond to treatment (non-response rate)", "setting": "ADHD patients; clinical evidence, Michelson et al. (2002)", "result": "approximately 40%"},
      {"measurement": "Number of subjects reporting side effects", "setting": "children with ADHD [1]; both, human, in vivo", "result": 4, "unit": "subjects"},
      {"measurement": "Side effect: headache (number of reports)", "setting": "children with ADHD [1]; both, human, in vivo", "result": 3},
      {"measurement": "Side effect: loss of appetite (number of reports)", "setting": "children with ADHD [1]; both, human, in vivo", "result": 2},
      {"measurement": "Side effect: nausea (number of reports)", "setting": "children with ADHD [1]; both, human, in vivo", "result": 2},
      {"measurement": "Side effect: numbness/tingling (number of reports)", "setting": "children with ADHD [1]; both, human, in vivo", "result": 1},
      {"measurement": "Side effect: scalp pain (number of reports)", "setting": "children with ADHD [1]; both, human, in vivo", "result": 1},
      {"measurement": "Side effect: stomach pain (number of reports)", "setting": "children with ADHD [1]; both, human, in vivo", "result": 1},
      {"measurement": "Severity rating of side effects", "setting": "children with ADHD [1]; in vivo", "result": "mild"},
      {"measurement": "Effect of medication on SICI", "setting": "children with ADHD [3]; [4]", "result": "slight decrease in SICI"},
      {"measurement": "Cortical Inhibition (SICI), post-medication", "setting": "children with ADHD [3]; [5]", "result": 0.51},
      {"measurement": "Cortical Inhibition (SICI), post-medication", "setting": "children with ADHD [3]; [6]", "result": 0.66},
      {"measurement": "Cortical Inhibition (SICI), post-medication", "setting": "children with ADHD [3]; [7]", "result": 0.62},
      {"measurement": "Cortical Inhibition (SICI), post-medication", "setting": "children with ADHD [3]; [8]", "result": 0.56},
      {"measurement": "Cortical Inhibition (SICI), post-medication", "setting": "children with ADHD [3]; [9]", "result": 0.59},
      {"measurement": "Effect of medication on SICI", "setting": "children with ADHD [3]; [10]", "result": "tend to increase (normalize) SICI"},
      {"measurement": "Effect of medication on SICI", "setting": "children with ADHD [3]; heterozygotes (single 10-repeat DAT1 allele), single oral dose, listed as Atomoxetine", "result": "increases (improves) SICI"},
      {"measurement": "Effect of medication on SICI", "setting": "children with ADHD [3]; [11]", "result": "decrease SICI"},
      {"measurement": "Effect of medication on SICI", "setting": "children with ADHD [3]; [12]", "result": "increase (normalize) SICI"}
    ]}
  ]
}
